# Test: Adverse events (TEAEs, SAEs, AESI; Safety Analysis Set)
# Excerpt: In analyses performed on the Safety Analysis Set, subjects will be analyzed according to their actual treatment received.
smiles,measurement,setting,value
CC(=O)N[C@H]1CC[C@H](NC(=O)CN2CCN(c3nncc(-c4ccc(C)cc4)n3)CC2)CC1 [Compound A HBr],AE requiring dose titration: Hyperkalemia,"100 mg QD Pooled, N 60",2 (3.3%)
same,AE requiring dose titration: Hyponatremia,"100 mg QD Pooled, N 60",1 (1.7%)
same,AE requiring dose titration: Other possibly related,"100 mg QD Pooled, N 60",0
same,AE requiring dose titration: Other unrelated,"100 mg QD Pooled, N 60",0
same,AE requiring study drug discontinuation: Hyperkalemia,"100 mg QD Pooled, N 60",2 (3.3%)
same,AE requiring study drug discontinuation: Hyponatremia,"100 mg QD Pooled, N 60",1 (1.7%)
same,AE requiring study drug discontinuation: Hypotension,"100 mg QD Pooled, N 60",2 (3.3%)
same,AE requiring study drug discontinuation: Other possibly related,"100 mg QD Pooled, N 60",1 (1.7%)
same,AE requiring study drug discontinuation: Other unrelated,"100 mg QD Pooled, N 60",4 (6.7%)
same,Serious adverse events (SAEs) related to the study medication,"Example 1 analysis, whole trial",No serious adverse events
same,Subjects with TEAE resulting in dose modification,Part 1,24 subjects
same,AE requiring dose titration: Hyperkalemia,"Part 1 100 mg QD, N 29",1 (3.4%)
same,AE requiring dose titration: Hyponatremia,"Part 1 100 mg QD, N 29",0
same,AE requiring dose titration: Other possibly related,"Part 1 100 mg QD, N 29",0
same,AE requiring dose titration: Other unrelated,"Part 1 100 mg QD, N 29",0
same,AE requiring study drug discontinuation: Hyperkalemia,"Part 1 100 mg QD, N 29",2 (6.9%)
same,AE requiring study drug discontinuation: Hyponatremia,"Part 1 100 mg QD, N 29",0
same,AE requiring study drug discontinuation: Hypotension,"Part 1 100 mg QD, N 29",1 (3.4%)
same,AE requiring study drug discontinuation: Other possibly related,"Part 1 100 mg QD, N 29",1 (3.4%)
same,AE requiring study drug discontinuation: Other unrelated,"Part 1 100 mg QD, N 29",3 (6.0%)
same,"On-treatment TEAE, Cardiac disorders, %","Part 1, 12.5 mg BID (N = 22)",(4.5) %
same,"On-treatment TEAE, Cortisol decreased, %","Part 1, 12.5 mg BID (N = 22)",(9.1) %
same,"On-treatment TEAE, Cortisol decreased, Mild, %","Part 1, 12.5 mg BID (N = 22)",(9.1) %
same,"On-treatment TEAE, General disorders and administration site conditions, %","Part 1, 12.5 mg BID (N = 22)",(9.1) %
same,"On-treatment TEAE, General disorders and administration site conditions, Mild, %","Part 1, 12.5 mg BID (N = 22)",(4.5) %
same,"On-treatment TEAE, Glomerular filtration rate decreased, %","Part 1, 12.5 mg BID (N = 22)",(13.6) %
same,"On-treatment TEAE, Glomerular filtration rate decreased, Mild, %","Part 1, 12.5 mg BID (N = 22)",(13.6) %
same,"On-treatment TEAE, Hyperkalaemia, %","Part 1, 12.5 mg BID (N = 22)",(22.7) %
same,"On-treatment TEAE, Hyperkalaemia, Mild, %","Part 1, 12.5 mg BID (N = 22)",(18.2) %
same,"On-treatment TEAE, Hyperkalaemia, Moderate, %","Part 1, 12.5 mg BID (N = 22)",(4.5) %
same,"On-treatment TEAE, Infections and infestations, %","Part 1, 12.5 mg BID (N = 22)",(4.5) %
same,"On-treatment TEAE, Infections and infestations, Moderate, %","Part 1, 12.5 mg BID (N = 22)",(4.5) %
same,"On-treatment TEAE, Investigations, %","Part 1, 12.5 mg BID (N = 22)",(27.3) %
same,"On-treatment TEAE, Investigations, Mild, %","Part 1, 12.5 mg BID (N = 22)",(22.7) %
same,"On-treatment TEAE, Investigations, Moderate, %","Part 1, 12.5 mg BID (N = 22)",(4.5) %
same,"On-treatment TEAE, Metabolism and nutrition disorders, %","Part 1, 12.5 mg BID (N = 22)",(22.7) %
same,"On-treatment TEAE, Metabolism and nutrition disorders, Mild, %","Part 1, 12.5 mg BID (N = 22)",(18.2) %
same,"On-treatment TEAE, Metabolism and nutrition disorders, Moderate, %","Part 1, 12.5 mg BID (N = 22)",(4.5) %
same,"On-treatment TEAE, Nervous system disorders, %","Part 1, 12.5 mg BID (N = 22)",(4.5) %
same,"On-treatment TEAE, Nervous system disorders, Mild, %","Part 1, 12.5 mg BID (N = 22)",(4.5) %
same,"On-treatment TEAE, Orthostatic hypotension, %","Part 1, 12.5 mg BID (N = 22)",(4.5) %
same,"On-treatment TEAE, Orthostatic hypotension, Mild, %","Part 1, 12.5 mg BID (N = 22)",(4.5) %
same,"On-treatment TEAE, Psychiatric disorders, %","Part 1, 12.5 mg BID (N = 22)",(4.5) %
same,"On-treatment TEAE, Psychiatric disorders, Moderate, %","Part 1, 12.5 mg BID (N = 22)",(4.5) %
same,"On-treatment TEAE, Vascular disorders, %","Part 1, 12.5 mg BID (N = 22)",(9.1) %
same,"On-treatment TEAE, Vascular disorders, Mild, %","Part 1, 12.5 mg BID (N = 22)",(9.1) %
same,"Subjects with any On-treatment TEAEs leading to withdrawal from study drug, %","Part 1, 12.5 mg BID (N = 22)",4.5%
same,"Subjects with any On-treatment TEAEs, Mild, %","Part 1, 12.5 mg BID (N = 22)",(36.4) %
same,"Subjects with any On-treatment TEAEs, Moderate, %","Part 1, 12.5 mg BID (N = 22)",(22.7) %
same,"TEAE leading to permanent discontinuation from study drug, Orthostatic hypotension, %","Part 1, 12.5 mg BID (N = 22)",4.5%
same,"TEAE leading to permanent discontinuation from study drug, Vascular disorders, %","Part 1, 12.5 mg BID (N = 22)",4.5%
same,"On-treatment TEAE, Cardiac disorders, %","Part 1, 12.5 mg QD (N = 23)",(8.7) %
same,"On-treatment TEAE, Dizziness, %","Part 1, 12.5 mg QD (N = 23)",(4.3) %
same,"On-treatment TEAE, Gastrointestinal disorders, %","Part 1, 12.5 mg QD (N = 23)",(8.7) %
same,"On-treatment TEAE, Gastrointestinal disorders, Mild, %","Part 1, 12.5 mg QD (N = 23)",(4.3) %
same,"On-treatment TEAE, General disorders and administration site conditions, %","Part 1, 12.5 mg QD (N = 23)",(4.3) %
same,"On-treatment TEAE, Glomerular filtration rate decreased, %","Part 1, 12.5 mg QD (N = 23)",(4.3) %
same,"On-treatment TEAE, Glomerular filtration rate decreased, Mild, %","Part 1, 12.5 mg QD (N = 23)",(4.3) %
same,"On-treatment TEAE, Hyperkalaemia, %","Part 1, 12.5 mg QD (N = 23)",(26.1) %
same,"On-treatment TEAE, Hyperkalaemia, Mild, %","Part 1, 12.5 mg QD (N = 23)",(17.4) %
same,"On-treatment TEAE, Hyperkalaemia, Moderate, %","Part 1, 12.5 mg QD (N = 23)",(4.3) %
same,"On-treatment TEAE, Hyperkalaemia, Severe, %","Part 1, 12.5 mg QD (N = 23)",(4.3) %
same,"On-treatment TEAE, Hypertension, %","Part 1, 12.5 mg QD (N = 23)",(8.7) %
same,"On-treatment TEAE, Hypertension, Moderate, %","Part 1, 12.5 mg QD (N = 23)",(4.3) %
same,"On-treatment TEAE, Infections and infestations, %","Part 1, 12.5 mg QD (N = 23)",(13.0) %
same,"On-treatment TEAE, Infections and infestations, Mild, %","Part 1, 12.5 mg QD (N = 23)",(13.0) %
same,"On-treatment TEAE, Investigations, %","Part 1, 12.5 mg QD (N = 23)",(13.0) %
same,"On-treatment TEAE, Investigations, Mild, %","Part 1, 12.5 mg QD (N = 23)",(13.0) %
same,"On-treatment TEAE, Metabolism and nutrition disorders, %","Part 1, 12.5 mg QD (N = 23)",(26.1) %
same,"On-treatment TEAE, Metabolism and nutrition disorders, Mild, %","Part 1, 12.5 mg QD (N = 23)",(17.4) %
same,"On-treatment TEAE, Metabolism and nutrition disorders, Moderate, %","Part 1, 12.5 mg QD (N = 23)",(4.3) %
same,"On-treatment TEAE, Nervous system disorders, %","Part 1, 12.5 mg QD (N = 23)",(8.7) %
same,"On-treatment TEAE, Nervous system disorders, Mild, %","Part 1, 12.5 mg QD (N = 23)",(8.7) %
same,"On-treatment TEAE, Orthostatic hypotension, %","Part 1, 12.5 mg QD (N = 23)",(8.7) %
same,"On-treatment TEAE, Orthostatic hypotension, Mild, %","Part 1, 12.5 mg QD (N = 23)",(8.7) %
same,"On-treatment TEAE, Urinary tract infection, %","Part 1, 12.5 mg QD (N = 23)",(4.3) %
same,"On-treatment TEAE, Urinary tract infection, Mild, %","Part 1, 12.5 mg QD (N = 23)",(4.3) %
same,"On-treatment TEAE, Vascular disorders, %","Part 1, 12.5 mg QD (N = 23)",(13.0) %
